PubChem BioAssay AID1224898

Each molecule was assayed on Trichuris muris adults ex vivo, WormWatcher motility, 24 h (assay: motility loss in adult Trichuris muris, dose response, whole organism, ex vivo, WormWatcher (AID 1224898)).

EC50, active:
Cc1ccc(CN2C(=O)COCc3cc(-c4cccnc4)ccc32)cc1 57 µM
Cc1ccc(CN2C(=O)COCc3cc(-c4ccncc4)ccc32)cc1 50 µM
O=C1COCc2cc(-c3cccnc3)ccc2N1CC1CCCCC1 52 µM
Cc1ccc(CN2C(=O)COCc3cc(Br)ccc32)cc1 35 µM
O=C1COCc2cc(-c3cccnc3)ccc2N1Cc1ccc(C(F)(F)F)cc1 26 µM
